Results reported in ChEMBL document CHEMBL5463725, “Data for DCP probe BAY-277” (2023).
Activity calls are given as the source filed them. The rule behind the calls is not given here.

How the values were obtained:
[1] = molecular target: Aldo-keto reductase family 1 member B1 (Rattus norvegicus) (UniProt P07943); test: Inhibition of Aldose Reductase at 10.0 µM in the Eurofins Panlabs Safety Screen; conditions: Compound concentration 10.0 uM
[2] = molecular target: T1, Muscarinic acetylcholine receptor M3 (Homo sapiens, UniProt P20309); conditions: Compound concentration 10.0 uM
[3] = molecular target: Histamine H1 receptor (Homo sapiens) (UniProt P35367); test: Inhibition of Histamine H1 at 10.0 µM in the Eurofins Panlabs Safety Screen; conditions: Compound concentration 10.0 uM
[4] = molecular target: Insulin receptor (Homo sapiens) (UniProt P06213); test: Inhibition of Insulin at 10.0 µM in the Eurofins Panlabs Safety Screen; conditions: Rattus norvegicus; Compound concentration 10.0 uM
[5] = molecular target: Estrogen receptor (Homo sapiens) (UniProt P03372); test: Inhibition of Estrogen Eralpha at 10.0 µM in the Eurofins Panlabs Safety Screen; conditions: Compound concentration 10.0 uM
[6] = molecular target: T2, 5-hydroxytryptamine receptor 2C (Homo sapiens) (UniProt P28335); test: Inhibition of Serotonin (5-Hydroxytryptamine) 5-HT2C at 10.0 µM in the Eurofins Panlabs Safety Screen; conditions: Compound concentration 10.0 uM
T2 sequence (whole entry): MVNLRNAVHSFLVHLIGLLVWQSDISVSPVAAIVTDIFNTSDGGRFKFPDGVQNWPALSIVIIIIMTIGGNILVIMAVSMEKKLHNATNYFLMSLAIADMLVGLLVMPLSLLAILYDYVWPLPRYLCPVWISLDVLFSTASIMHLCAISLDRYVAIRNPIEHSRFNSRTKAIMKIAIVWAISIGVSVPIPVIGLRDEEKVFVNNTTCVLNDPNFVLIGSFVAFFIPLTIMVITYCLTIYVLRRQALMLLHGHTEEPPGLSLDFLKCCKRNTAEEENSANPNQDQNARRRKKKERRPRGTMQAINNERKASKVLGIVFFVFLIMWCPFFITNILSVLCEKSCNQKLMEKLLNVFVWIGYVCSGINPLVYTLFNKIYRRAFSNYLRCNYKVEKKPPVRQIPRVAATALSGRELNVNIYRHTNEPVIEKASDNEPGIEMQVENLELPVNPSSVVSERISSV

[7] = molecular target: Adenosine receptor A1 (Homo sapiens) (UniProt P30542); test: Inhibition of Adenosine A1 at 10.0 µM in the Eurofins Panlabs Safety Screen; conditions: Compound concentration 10.0 uM
[8] = molecular target: Beta-2 adrenergic receptor (Homo sapiens) (UniProt P07550); test: Inhibition of Adrenergic beta2 at 10.0 µM in the Eurofins Panlabs Safety Screen; conditions: Compound concentration 10.0 uM
[9] = molecular target: 3',5'-cyclic-AMP phosphodiesterase 4D (Homo sapiens) (UniProt Q08499); test: Inhibition of Phosphodiesterase PDE4D2 at 10.0 µM in the Eurofins Panlabs Safety Screen; conditions: Compound concentration 10.0 uM
[10] = molecular target: Serine/threonine-protein kinase haspin (Homo sapiens) (UniProt Q8TF76); test: Inhibition of Haspin(h) at 10.0 µM in the Eurofins Kinase panel; conditions: Compound concentration 10.0 uM
[11] = molecular target: T3, 5-hydroxytryptamine receptor 1A (Homo sapiens) (UniProt P08908); conditions: Compound concentration 10.0 uM
T3 sequence (whole entry): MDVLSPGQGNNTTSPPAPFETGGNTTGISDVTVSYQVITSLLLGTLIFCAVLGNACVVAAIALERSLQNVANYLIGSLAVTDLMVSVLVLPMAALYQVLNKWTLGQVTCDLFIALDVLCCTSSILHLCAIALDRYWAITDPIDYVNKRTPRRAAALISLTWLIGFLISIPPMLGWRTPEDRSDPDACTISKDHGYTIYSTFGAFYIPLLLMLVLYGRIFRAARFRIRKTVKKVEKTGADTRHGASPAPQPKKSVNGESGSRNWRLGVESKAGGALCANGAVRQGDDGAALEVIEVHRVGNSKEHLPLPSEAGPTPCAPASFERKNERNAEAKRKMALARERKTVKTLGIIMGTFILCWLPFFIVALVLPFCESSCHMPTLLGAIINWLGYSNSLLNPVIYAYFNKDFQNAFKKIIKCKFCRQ

[12] = molecular target: Hepatocyte growth factor receptor (Homo sapiens) (UniProt P08581); test: Inhibition of Met(h) at 10.0 µM in the Eurofins Kinase panel; conditions: Compound concentration 10.0 uM
[13] = molecular target: Monoamine oxidase A (MAO-A) (Homo sapiens, UniProt P21397); test: Inhibition of Monoamine Oxidase MAO-A at 10.0 µM in the Eurofins Panlabs Safety Screen; conditions: compound concentration 10 uM
[14] = molecular target: Histamine H3 receptor (Homo sapiens, UniProt Q9Y5N1); conditions: Compound concentration 10.0 uM
[15] = molecular target: D(1A) dopamine receptor (Homo sapiens) (UniProt P21728); test: Inhibition of Dopamine D1 at 10.0 µM in the Eurofins Panlabs Safety Screen; conditions: Compound concentration 10.0 uM
[16] = molecular target: Alpha-1A adrenergic receptor (Homo sapiens) (UniProt P35348); conditions: Compound concentration 10.0 uM
[17] = molecular target: D(2) dopamine receptor (Homo sapiens) (UniProt P14416); test: Inhibition of Dopamine D2S at 10.0 µM in the Eurofins Panlabs Safety Screen; conditions: Compound concentration 10.0 uM
[18] = molecular target: Tyrosine-protein kinase HCK (Homo sapiens) (UniProt P08631); test: Inhibition of Hck(h) at 10.0 µM in the Eurofins Kinase panel; conditions: Compound concentration 10.0 uM
[19] = molecular target: Alpha-1B adrenergic receptor (Homo sapiens) (UniProt P35368); conditions: Compound concentration 10.0 uM
[20] = molecular target: T1, Muscarinic acetylcholine receptor M3; test: Inhibition of Muscarinic M3 at 10.0 µM in the Eurofins Panlabs Safety Screen; conditions: Compound concentration 10.0 uM
[21] = molecular target: Sodium-dependent serotonin transporter (Homo sapiens) (UniProt P31645); test: Inhibition of Transporter, Serotonin (5-Hydroxytryptamine) (SERT) at 10.0 µM in the Eurofins Panlabs Safety Screen; conditions: Compound concentration 10.0 uM
[22] = molecular target: 5-hydroxytryptamine receptor 3A (Homo sapiens) (UniProt P46098); conditions: Compound concentration 10.0 uM
[23] = molecular target: Histamine H2 receptor (Homo sapiens) (UniProt P25021); conditions: Compound concentration 10.0 uM
[24] = molecular target: Sodium-dependent dopamine transporter (Homo sapiens, UniProt Q01959); conditions: Compound concentration 10.0 uM
[25] = molecular target: Beta-3 adrenergic receptor (Homo sapiens) (UniProt P13945); test: Inhibition of Adrenergic beta3 at 10.0 µM in the Eurofins Panlabs Safety Screen; conditions: Compound concentration 10.0 uM
[26] = molecular target: Mu-type opioid receptor (Homo sapiens) (UniProt P35372); conditions: Compound concentration 10.0 uM
[27] = molecular target: Methionine aminopeptidase 2 (Homo sapiens, UniProt P50579); test: Degradation in HT1080 cells (CE) (Capillary electrophoresis (CE)); format: functional, cell-based; conditions: ht-1080
[28] = molecular target: Muscarinic acetylcholine receptor M5 (Homo sapiens) (UniProt P08912); conditions: Compound concentration 10.0 uM
[29] = molecular target: T3, 5-hydroxytryptamine receptor 1A (Homo sapiens); test: Inhibition of Serotonin (5-Hydroxytryptamine) 5-HT1A at 10.0 µM in the Eurofins Panlabs Safety Screen; conditions: Compound concentration 10.0 uM
[30] = molecular target: TGF-beta receptor type-2 (Homo sapiens) (UniProt P37173); test: Inhibition of TGFBR2(h) at 10.0 µM in the Eurofins Kinase panel; conditions: Compound concentration 10.0 uM

Sequence of Mu-type opioid receptor (Homo sapiens) (P35372 whole entry): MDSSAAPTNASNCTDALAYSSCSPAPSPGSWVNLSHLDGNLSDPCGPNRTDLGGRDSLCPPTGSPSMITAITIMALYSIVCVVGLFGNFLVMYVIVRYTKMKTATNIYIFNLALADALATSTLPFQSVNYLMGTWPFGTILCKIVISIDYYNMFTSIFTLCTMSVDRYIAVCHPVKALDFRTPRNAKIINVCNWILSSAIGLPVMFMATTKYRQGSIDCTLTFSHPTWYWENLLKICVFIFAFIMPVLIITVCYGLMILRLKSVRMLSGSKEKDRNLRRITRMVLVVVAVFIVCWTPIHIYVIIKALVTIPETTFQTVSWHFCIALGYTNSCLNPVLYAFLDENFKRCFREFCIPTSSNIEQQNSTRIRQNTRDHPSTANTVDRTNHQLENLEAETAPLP
T1 sequence (P20309 whole entry, looked up): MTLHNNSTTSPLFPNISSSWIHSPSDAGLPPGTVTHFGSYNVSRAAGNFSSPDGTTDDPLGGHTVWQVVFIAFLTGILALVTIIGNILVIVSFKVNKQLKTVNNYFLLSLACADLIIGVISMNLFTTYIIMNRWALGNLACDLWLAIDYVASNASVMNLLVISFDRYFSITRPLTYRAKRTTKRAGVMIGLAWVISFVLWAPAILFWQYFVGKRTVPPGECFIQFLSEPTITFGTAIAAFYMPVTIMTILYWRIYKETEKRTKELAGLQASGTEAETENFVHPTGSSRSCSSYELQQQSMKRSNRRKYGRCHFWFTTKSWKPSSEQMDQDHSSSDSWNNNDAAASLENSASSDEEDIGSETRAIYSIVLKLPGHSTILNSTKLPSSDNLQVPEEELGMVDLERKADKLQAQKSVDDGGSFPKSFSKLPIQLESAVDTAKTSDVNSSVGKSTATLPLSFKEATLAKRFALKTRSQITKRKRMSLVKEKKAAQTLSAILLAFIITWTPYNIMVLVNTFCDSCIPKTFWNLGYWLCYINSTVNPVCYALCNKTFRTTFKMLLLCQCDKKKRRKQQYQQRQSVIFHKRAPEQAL
Sequence of Alpha-1B adrenergic receptor (Homo sapiens) (P35368 whole entry): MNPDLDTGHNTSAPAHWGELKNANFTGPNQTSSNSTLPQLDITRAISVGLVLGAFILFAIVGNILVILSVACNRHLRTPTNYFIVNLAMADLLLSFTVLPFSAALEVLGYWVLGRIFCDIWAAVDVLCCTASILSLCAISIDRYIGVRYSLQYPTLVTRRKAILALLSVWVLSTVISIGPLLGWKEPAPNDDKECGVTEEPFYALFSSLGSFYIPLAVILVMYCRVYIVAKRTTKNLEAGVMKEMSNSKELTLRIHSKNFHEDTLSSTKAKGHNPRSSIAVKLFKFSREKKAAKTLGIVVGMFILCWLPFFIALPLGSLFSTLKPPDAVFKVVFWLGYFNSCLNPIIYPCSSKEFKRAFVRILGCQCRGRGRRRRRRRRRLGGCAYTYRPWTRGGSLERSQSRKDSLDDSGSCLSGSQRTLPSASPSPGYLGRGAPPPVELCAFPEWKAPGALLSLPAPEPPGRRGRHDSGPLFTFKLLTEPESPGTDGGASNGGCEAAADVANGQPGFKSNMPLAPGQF
Sequence of Sodium-dependent dopamine transporter (Q01959 whole entry): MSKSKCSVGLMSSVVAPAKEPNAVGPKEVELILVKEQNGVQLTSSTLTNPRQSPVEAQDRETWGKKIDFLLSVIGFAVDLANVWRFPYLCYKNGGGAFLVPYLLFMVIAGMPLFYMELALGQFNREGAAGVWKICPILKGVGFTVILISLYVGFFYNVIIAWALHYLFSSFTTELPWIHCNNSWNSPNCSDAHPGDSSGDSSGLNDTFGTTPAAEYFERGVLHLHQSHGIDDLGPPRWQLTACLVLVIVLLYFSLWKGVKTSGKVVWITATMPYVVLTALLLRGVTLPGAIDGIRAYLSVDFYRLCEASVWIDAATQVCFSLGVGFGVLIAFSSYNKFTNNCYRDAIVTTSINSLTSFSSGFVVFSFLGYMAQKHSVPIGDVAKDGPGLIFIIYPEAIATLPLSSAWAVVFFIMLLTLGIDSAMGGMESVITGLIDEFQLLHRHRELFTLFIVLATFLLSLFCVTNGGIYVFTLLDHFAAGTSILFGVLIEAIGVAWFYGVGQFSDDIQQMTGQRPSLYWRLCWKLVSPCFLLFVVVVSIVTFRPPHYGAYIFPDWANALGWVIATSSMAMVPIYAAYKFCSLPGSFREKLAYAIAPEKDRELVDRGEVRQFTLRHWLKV
Sequence of Alpha-1A adrenergic receptor (Homo sapiens) (P35348 whole entry): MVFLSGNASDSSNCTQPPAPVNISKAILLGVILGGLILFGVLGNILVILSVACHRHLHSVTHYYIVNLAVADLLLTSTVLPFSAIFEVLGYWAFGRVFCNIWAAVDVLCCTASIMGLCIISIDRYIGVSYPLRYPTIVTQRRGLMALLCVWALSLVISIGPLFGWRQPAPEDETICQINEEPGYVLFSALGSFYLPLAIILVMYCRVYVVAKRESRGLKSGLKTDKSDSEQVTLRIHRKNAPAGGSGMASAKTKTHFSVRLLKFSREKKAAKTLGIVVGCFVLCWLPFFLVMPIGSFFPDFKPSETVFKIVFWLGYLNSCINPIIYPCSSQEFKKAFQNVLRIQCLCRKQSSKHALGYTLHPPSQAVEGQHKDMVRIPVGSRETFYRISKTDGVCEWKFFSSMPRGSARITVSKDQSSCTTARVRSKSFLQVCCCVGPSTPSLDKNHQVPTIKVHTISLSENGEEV
Sequence of Muscarinic acetylcholine receptor M5 (Homo sapiens) (P08912 whole entry): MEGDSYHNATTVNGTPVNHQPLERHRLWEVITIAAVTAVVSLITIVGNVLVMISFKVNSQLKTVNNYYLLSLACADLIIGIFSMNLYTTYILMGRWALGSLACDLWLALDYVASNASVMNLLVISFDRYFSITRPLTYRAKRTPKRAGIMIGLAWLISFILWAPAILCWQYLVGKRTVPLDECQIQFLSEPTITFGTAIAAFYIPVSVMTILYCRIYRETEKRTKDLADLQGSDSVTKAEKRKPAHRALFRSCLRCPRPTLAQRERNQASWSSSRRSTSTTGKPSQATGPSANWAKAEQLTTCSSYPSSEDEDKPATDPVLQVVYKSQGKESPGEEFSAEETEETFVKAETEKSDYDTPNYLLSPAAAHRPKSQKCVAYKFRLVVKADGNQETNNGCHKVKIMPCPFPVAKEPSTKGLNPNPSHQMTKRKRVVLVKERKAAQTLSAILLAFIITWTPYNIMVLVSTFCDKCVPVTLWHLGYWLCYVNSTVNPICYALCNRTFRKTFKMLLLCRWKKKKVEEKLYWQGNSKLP
Sequence of 5-hydroxytryptamine receptor 3A (Homo sapiens) (P46098 whole entry): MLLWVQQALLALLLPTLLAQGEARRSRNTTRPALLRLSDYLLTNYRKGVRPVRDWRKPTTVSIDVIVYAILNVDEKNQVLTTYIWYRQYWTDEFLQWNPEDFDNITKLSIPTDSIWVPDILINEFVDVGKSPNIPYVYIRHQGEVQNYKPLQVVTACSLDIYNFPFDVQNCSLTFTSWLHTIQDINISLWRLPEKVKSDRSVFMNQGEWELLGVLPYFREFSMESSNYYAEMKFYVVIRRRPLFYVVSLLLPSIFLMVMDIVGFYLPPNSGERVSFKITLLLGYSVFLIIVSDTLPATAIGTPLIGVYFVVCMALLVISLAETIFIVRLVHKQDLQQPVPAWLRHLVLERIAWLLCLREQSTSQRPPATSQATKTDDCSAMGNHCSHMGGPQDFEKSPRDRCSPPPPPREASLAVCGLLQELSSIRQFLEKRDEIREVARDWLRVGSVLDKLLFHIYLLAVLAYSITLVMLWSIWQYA
Sequence of Histamine H3 receptor (Q9Y5N1 whole entry): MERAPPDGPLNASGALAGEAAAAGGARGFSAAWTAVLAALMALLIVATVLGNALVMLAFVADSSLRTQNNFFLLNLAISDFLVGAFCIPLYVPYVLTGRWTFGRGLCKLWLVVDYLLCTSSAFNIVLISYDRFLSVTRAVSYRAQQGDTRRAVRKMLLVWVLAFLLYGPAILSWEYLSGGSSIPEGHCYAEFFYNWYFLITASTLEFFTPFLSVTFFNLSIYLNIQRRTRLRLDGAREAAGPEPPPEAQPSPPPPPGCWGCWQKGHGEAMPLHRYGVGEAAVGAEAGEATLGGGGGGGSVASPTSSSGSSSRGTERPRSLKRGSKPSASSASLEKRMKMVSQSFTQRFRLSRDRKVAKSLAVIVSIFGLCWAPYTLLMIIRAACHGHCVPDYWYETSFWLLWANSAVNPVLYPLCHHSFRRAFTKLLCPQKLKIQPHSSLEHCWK
Sequence of Histamine H2 receptor (Homo sapiens) (P25021 whole entry): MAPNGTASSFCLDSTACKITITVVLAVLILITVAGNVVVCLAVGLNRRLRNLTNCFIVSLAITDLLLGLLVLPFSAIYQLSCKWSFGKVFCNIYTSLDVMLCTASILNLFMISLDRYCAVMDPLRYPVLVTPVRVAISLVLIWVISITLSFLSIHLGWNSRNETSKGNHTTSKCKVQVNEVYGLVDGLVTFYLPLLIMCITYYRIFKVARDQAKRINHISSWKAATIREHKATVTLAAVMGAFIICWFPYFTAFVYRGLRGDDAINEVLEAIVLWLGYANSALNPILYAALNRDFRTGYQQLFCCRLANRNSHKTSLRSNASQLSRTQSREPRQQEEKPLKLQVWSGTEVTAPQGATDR
Sequence of Histamine H1 receptor (Homo sapiens) (P35367 whole entry): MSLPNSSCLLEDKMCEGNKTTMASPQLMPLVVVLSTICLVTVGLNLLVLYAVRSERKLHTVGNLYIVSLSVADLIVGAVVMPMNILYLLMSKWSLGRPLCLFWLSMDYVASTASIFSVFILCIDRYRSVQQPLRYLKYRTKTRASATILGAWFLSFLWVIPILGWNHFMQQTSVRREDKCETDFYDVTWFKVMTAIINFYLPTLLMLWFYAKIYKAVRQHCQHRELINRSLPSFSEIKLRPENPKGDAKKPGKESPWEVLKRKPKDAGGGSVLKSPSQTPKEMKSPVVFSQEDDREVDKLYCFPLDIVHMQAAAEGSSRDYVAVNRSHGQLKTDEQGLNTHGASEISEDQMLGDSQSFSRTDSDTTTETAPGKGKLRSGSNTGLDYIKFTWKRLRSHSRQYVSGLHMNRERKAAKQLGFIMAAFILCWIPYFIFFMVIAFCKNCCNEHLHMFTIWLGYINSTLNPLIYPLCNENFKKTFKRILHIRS

SMILES	inhibition [1] [%]	inhibition [2] [%]	inhibition [3] [%]	inhibition [4] [%]	inhibition [5] [%]	inhibition [6] [%]	inhibition [7] [%]	inhibition [8] [%]	inhibition [9] [%]	inhibition [10] [%]	inhibition [11] [%]	inhibition [12] [%]	inhibition at 10 µM [13] [%]	inhibition [14] [%]	inhibition [15] [%]	inhibition [16] [%]	inhibition [17] [%]	inhibition [18] [%]	inhibition [19] [%]	inhibition [20] [%]	further results
O=C1NCCCC1N1Cc2cc(C3CCN(C(=O)CCCCCN4CCC(c5ccc(Oc6nn7cnnc7c7c6CCCC7)cc5)CC4)CC3)ccc2C1=O (stereo not given)	29	51.5	22	-5	22	2	3	13	18	26	35.3	16.9	18	91.5	20	-1.93	13	17.9	2.86	29	inhibition [21]: 22%; inhibition [22]: 23.8%; inhibition [23]: 42.1%; inhibition [24]: 51.4%; inhibition [25]: 13%; inhibition [26]: 13.8%; DC50 [27]: > 1000 nM (not active); inhibition [28]: 41.8%; inhibition [29]: 6%; inhibition [30]: 11.3%
O=C1CCC(N2Cc3cc(C4CCN(C(=O)CCCCCN5CCC(c6ccc(Oc7nn8cnnc8c8c7CCCC8)cc6)CC5)CC4)ccc3C2=O)C(=O)N1 (stereo not given)	32	55	23	-7	17	14	7	-4	10	28.6	7.96	22.7	16	100	16	12.2	-8	12.8	6.88	26	inhibition [21]: 32%; inhibition [22]: 22.9%; inhibition [23]: 42.2%; inhibition [24]: 50.7%; inhibition [25]: 16%; inhibition [26]: 16.3%; DC50 [27]: 8.93 nM (active); inhibition [28]: 71%; inhibition [29]: 25%; inhibition [30]: 12.7%
